Reference: US6596284B1, “Treating eczema with a combination of isotonic saline ocean® and nasal mast cell stabilizers” (priority 2002, dated 2003)
Counter-ions that a name gives are not always drawn.

Test: Topical application of cromolyn sodium in OCEAN at the affected site in twenty adult subjects with atopic eczema
Type: in vivo, human
Settings: 300 mg/45 ml OCEAN (0.67%), applied every 4 to 6 hours at the affected site, after two weeks
Experimental: A group of twenty adult subjects suffering from atopic eczema were asked to apply cromolyn sodium (at a concentration of 300 mg/45 ml OCEAN® giving a concentration of 0.67%) every 4 to 6 hours at the affected site, and instructed to rub the solution gently into the lesion.

**Q.** For `O=C(O)c1cc(=O)c2c(OCC(O)COc3cccc4oc(C(=O)O)cc(=O)c34)cccc2o1` [cromolyn sodium, disodium salt of 1,3-bis-(2-carboxy-chromone-5″yloxy)2-hydroxy propane], which “subjects who experienced relief from the symptoms” value is on record?
**A.** Its value is 19 of the 20.
